Test results taken from patent publication US20250345351A1, “OLIGOSACCHARIDE COMPOSITIONS AND METHODS OF USE” (DSM NUTRITIONAL PRODUCTS, LLC, priority 2020, published 2025).

Key:
[1] = system: fecal microbiome of healthy subjects; assay: Ex vivo fermentation in the presence of mesalamine: 16S rRNA amplicon sequencing, Bray-Curtis dissimilarity (Example 23); type: cell-based, human; conditions: all 5-ASA concentrations tested; replicate sequencing dissimilarity 0.06 (S.D. 0.03)
Method: (§1) 5-aminosalicilic acids (5-ASA), such as mesalamine, are standard-of-care compounds for the treatment of patients with mild-to-moderate ulcerative colitis. The ability of the selected oligosaccharide composition to support the growth of microbial taxa in the presence of mesaline was determined. Fecal samples from ten healthy subjects were incubated anaerobically in supplemented Clostridium minimal medium without (negative control) or with the selected oligosaccharide composition. Samples with the selected oligosaccharide composition were also incubated with 0.0, 0.5, 2, 8, 32, 125, or 500 μM mesalamine. Each fecal sample incubation was performed with three biological replicates. After incubation, samples were sedimented by centrifugation and culture supernatants were collected for SCFA quantification by GC-FID.
To understand if mesalamine influenced understand the shifts in taxonomic composition produced by incubation with the selected oligosaccharide composition, the fecal samples were characterized by 16S rRNA amplicon seuquencing. Genomic DNA was extracted from fecal samples using DNeasy PowerSoil extraction plates (Qiagen) and quantified using the Quant-iT PicoGreen dsDNA assay (Invitrogen). 16S rRNA libraries were prepared by PCR amplification with the 515F/806R primer set before sequencing on the Illumina NextSeq platform to at least 25 thousand reads. […]

[2] = system: fecal samples from ten healthy subjects; assay: Ex vivo fermentation of the selected oligosaccharide composition in the presence of mesalamine: SCFA by GC-FID (Example 23); type: cell-based, human; conditions: 0.5, 2, 8, 32, 125, or 500 μM mesalamine with the composition
Method: as §1, with “mesaline was” left out

SMILES: Nc1ccc(O)c(C(=O)O)c1 [mesalamine]
- mean Bray-Curtis dissimilarity to samples incubated with the composition and without mesalamine [1]: 0.06 (S.D. 0.02)
- effect on SCFA production by the selected oligosaccharide composition [2]: none of the samples incubated with mesalamine showed any significant differences in SCFA production
